Data as given in ChEMBL document CHEMBL5380831, “Azolylpyrimidinediols as Novel Structural Scaffolds of DNA-Groove Binders against Intractable Acinetobacter baumannii” (J Med Chem, 2023).
Converted amounts (≈) assume the structure as drawn. The source made the active and inactive calls. The calls are words filed in the database; no cut-off is given here.

Columns and labels:
[1] = Tmax in Kunming mouse at 10 mg/kg, iv measured upto 24 hrs by LC-MS analysis; assay type: ADME, organism-based; conditions: in vivo
Calf thymus DNA [2] = assay: Induction of calf thymus DNA cleavage at 0.05 mmol/L incubated for 6 hrs in presence of Zn(NO3)2 by agarose gel electrophoresis method; assay type: nucleic-acid assay; conditions: Bos taurus
[3] = Tmax in Kunming mouse at 10 mg/kg, po measured upto 24 hrs by LC-MS analysis; assay type: ADME, organism-based; conditions: in vivo
Acinetobacter baumannii [4] = assay: Antibiofilm activity against Acinetobacter baumannii assessed as biofilm eradication at 0.016 mmol/L incubated for 24 hrs by crystal violet staining based analysis relative to control; assay type: functional
[5] = Hemolytic activity in human RBC assessed as cell viability upto 256 ug/ml measured for 1 to 8 hrs by absorbance based assay relative to control; assay type: toxicity, Erythrocyte; conditions: red blood cells (erythrocytes), time 1-8 hrs, dose < 256 µg/ml, read-out: Activity
Pseudomonas aeruginosa = assay: Antibacterial activity against Pseudomonas aeruginosa ATCC 27853 assessed as bacterial growth inhibition incubated for 24 hrs by broth microdilution method; assay type: functional
Staphylococcus aureus = assay: Antibacterial activity against methicillin-resistant Staphylococcus aureus assessed as bacterial growth inhibition incubated for 24 hrs by broth microdilution method; assay type: functional
Calf thymus DNA [6] = assay: Binding affinity to calf thymus DNA incubated overnight in presence of sodium chloride by sodium ion-quenching assay; assay type: nucleic-acid assay; conditions: Bos taurus
[7] = AUC (0 to t) in Kunming mouse at 10 mg/kg, iv measured upto 24 hrs by LC-MS analysis; assay type: ADME, organism-based; parameters: time < 24 hrs, dose 10 mg/kg, route iv; conditions: in vivo
[8] = Half life in Kunming mouse at 10 mg/kg, iv measured upto 24 hrs by LC-MS analysis; assay type: ADME, organism-based; conditions: in vivo
Acinetobacter baumannii [9] = assay: Antibacterial activity against Acinetobacter baumannii assessed as bacterial growth inhibition incubated for 24 hrs by broth microdilution method; assay type: functional
[10] = Cmax in Kunming mouse at 10 mg/kg, po measured upto 24 hrs by LC-MS analysis; assay type: ADME, organism-based; parameters: time < 24 hrs, dose 10 mg/kg, route po; conditions: in vivo
[11] = AUMC (0 to t) in Kunming mouse at 10 mg/kg, iv measured upto 24 hrs by LC-MS analysis; assay type: ADME, organism-based; conditions: in vivo

Question: Which Tmax [1] does the source give for `OCCN(CCO)c1nccc(-n2cncn2)n1` here?
Answer: 1.98 min

Question: And the Activity (Calf thymus DNA [2])?
Answer: inactive

Question: And the Tmax [3]?
Answer: 34.8 min

Question: And the Activity (Acinetobacter baumannii [4])?
Answer: 39.1%

Question: What about the viability [5] of the same compound?
Answer: > 99%

Question: And the MIC (Pseudomonas aeruginosa)?
Answer: 512 µM (≈ 128 µg/mL)

Question: And the MIC (Staphylococcus aureus)?
Answer: 1020 µM (≈ 256 µg/mL)

Question: And the Activity (Calf thymus DNA [6])?
Answer: Active

Question: And the AUC(0-t) at 24 h [7]?
Answer: 2080 ng·h/mL

Question: What about the half-life [8] of the same compound?
Answer: 167 min

Question: What about the MIC (Acinetobacter baumannii [9]) of the same compound?
Answer: 2 µM (≈ 0.501 µg/mL)

Question: And the Cmax [10]?
Answer: 2130 ng/mL

Question: What about the AUMCt [11] of the same compound?
Answer: 5446 hr.hr.ng/ml
